Laboratory results: the supplement of paper PMC11208160

Experiment: recombinant barcode read abundance after kanamycin selection (control-corrected) (log10(CPM+1)); higher = more efficient recombination; sequences stand for … in AGTGCAGAGAAAATCGGCCAGTTTTCTCTGCCTGCAGTCCGCATGCCGT…ATTTATGCAGCGGACTGCCTTTCTCCCAAAGTGATAAACCGGACAGTATCATGGACCGGTTTTCCCGGTAATCCGTATTTGCAAGGTTGGTTTCACT; site = the 11-nt target
How it was run: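 Pooled E. coli screen pairing targets with IS621 bridge RNA target-binding loops. Each oligo (promoter, target, barcode, J23119-driven first 104 bridge RNA bases) was Gibson-cloned into a vector with the remaining 73 bp and T7-inducible recombinase, then co-electroporated with a donor plasmid. Two replicates each were plated on chloramphenicol/ampicillin LB agar (control) or chloramphenicol/ampicillin/kanamycin with 0.1 mM IPTG. Recombination efficiency is recombinant-junction barcode counts as CPM, averaged, control-corrected, reported as log10(CPM+1).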
With “GAGTCCATTTGGGTTCTAACCTGTTGCGTAA [GAGTCCACTAC_LTGcore_TT_RTGcore_TT] (site GAGTCCACTAC) (LTG core: TT, RTG core: TT)” the “recombinant barcode read abundance (log10)” value was 0.0342.
With “GAGTCCTACTGGGTTCTAACCTGTTGCCTAG [GAGTCCTCTAG_LTGcore_AC_RTGcore_CT] (site GAGTCCTCTAG) (LTG core: AC, RTG core: CT)” the “recombinant barcode read abundance (log10)” value was 0.674.
In the case of “GAGTCCTACTGGGTTCTAACCTGTTGCCTGT [GAGTCCTCTAG_LTGcore_AC_RTGcore_AC] (site GAGTCCTCTAG) (LTG core: AC, RTG core: AC)”, the “recombinant barcode read abundance (log10)” value is reported as 0.011.
In the case of “GAGTCCTAGTGGGTTCTAACCTGTTGCCTAG [GAGTCCTCTAG_LTGcore_AG_RTGcore_CT] (site GAGTCCTCTAG) (LTG core: AG, RTG core: CT)”, the “recombinant barcode read abundance (log10)” value is reported as 0.445.
With “GAGTCCTCATGGGTTCTAACCTGTTGCCTAG [GAGTCCTCTAG_LTGcore_CA_RTGcore_CT] (site GAGTCCTCTAG) (LTG core: CA, RTG core: CT)” the “recombinant barcode read abundance (log10)” value was 1.08.
In the case of “GAGTCCTCCTGGGTTCTAACCTGTTGCCTGG [GAGTCCTCTAG_LTGcore_CC_RTGcore_CC] (site GAGTCCTCTAG) (LTG core: CC, RTG core: CC)”, the “recombinant barcode read abundance (log10)” value is reported as 0.561.
For “GAGTCCTCTTGGGTTCTAACCTGTTGCCTAA [GAGTCCTCTAG_LTGcore_CT_RTGcore_TT] (site GAGTCCTCTAG) (LTG core: CT, RTG core: TT)”, the “recombinant barcode read abundance (log10)” value was 1.08.
With “GAGTCCTCTTGGGTTCTAACCTGTTGCCTCC [GAGTCCTCTAG_LTGcore_CT_RTGcore_GG] (site GAGTCCTCTAG) (LTG core: CT, RTG core: GG)” the “recombinant barcode read abundance (log10)” value was 1.21.
With “GAGTCCTGCTGGGTTCTAACCTGTTGCCTAG [GAGTCCTCTAG_LTGcore_GC_RTGcore_CT] (site GAGTCCTCTAG) (LTG core: GC, RTG core: CT)” the “recombinant barcode read abundance (log10)” value was 0.0703.
In the case of “GAGTCCTTATGGGTTCTAACCTGTTGCCTTA [GAGTCCTCTAG_LTGcore_TA_RTGcore_TA] (site GAGTCCTCTAG) (LTG core: TA, RTG core: TA)”, the “recombinant barcode read abundance (log10)” value is reported as 0.136.
With “GAGTCCTTCTGGGTTCTAACCTGTTGCCTAG [GAGTCCTCTAG_LTGcore_TC_RTGcore_CT] (site GAGTCCTCTAG) (LTG core: TC, RTG core: CT)” the “recombinant barcode read abundance (log10)” value was 0.0148.
With “GAGTCCTTCTGGGTTCTAACCTGTTGCCTGA [GAGTCCTCTAG_LTGcore_TC_RTGcore_TC] (site GAGTCCTCTAG) (LTG core: TC, RTG core: TC)” the “recombinant barcode read abundance (log10)” value was 0.0603.
With “GAGTCCTTGTGGGTTCTAACCTGTTGCCTCA [GAGTCCTCTAG_LTGcore_TG_RTGcore_TG] (site GAGTCCTCTAG) (LTG core: TG, RTG core: TG)” the “recombinant barcode read abundance (log10)” value was 0.235.
With “GCGCGACAATGGGTTCTAACCTGTTGCTTTT [GCGCGACCTAA_LTGcore_AA_RTGcore_AA] (site GCGCGACCTAA) (LTG core: AA, RTG core: AA)” the “recombinant barcode read abundance (log10)” value was 0.188.
With “GCGCGACCATGGGTTCTAACCTGTTGCTTTG [GCGCGACCTAA_LTGcore_CA_RTGcore_CA] (site GCGCGACCTAA) (LTG core: CA, RTG core: CA)” the “recombinant barcode read abundance (log10)” value was 0.125.
With “GCGCGACCCTGGGTTCTAACCTGTTGCTTGG [GCGCGACCTAA_LTGcore_CC_RTGcore_CC] (site GCGCGACCTAA) (LTG core: CC, RTG core: CC)” the “recombinant barcode read abundance (log10)” value was 0.0343.
With “GCGCGACCTTGGGTTCTAACCTGTTGCTTAA [GCGCGACCTAA_LTGcore_CT_RTGcore_TT] (site GCGCGACCTAA) (LTG core: CT, RTG core: TT)” the “recombinant barcode read abundance (log10)” value was 0.166.
With “GCGCGACCTTGGGTTCTAACCTGTTGCTTAT [GCGCGACCTAA_LTGcore_CT_RTGcore_AT] (site GCGCGACCTAA) (LTG core: CT, RTG core: AT)” the “recombinant barcode read abundance (log10)” value was 0.103.
In the case of “GCGCGACCTTGGGTTCTAACCTGTTGCTTCA [GCGCGACCTAA_LTGcore_CT_RTGcore_TG] (site GCGCGACCTAA) (LTG core: CT, RTG core: TG)”, the “recombinant barcode read abundance (log10)” value is reported as 0.481.
In the case of “GCGCGACCTTGGGTTCTAACCTGTTGCTTCG [GCGCGACCTAA_LTGcore_CT_RTGcore_CG] (site GCGCGACCTAA) (LTG core: CT, RTG core: CG)”, the “recombinant barcode read abundance (log10)” value is reported as 0.116.
With “GCGCGACCTTGGGTTCTAACCTGTTGCTTTT [GCGCGACCTAA_LTGcore_CT_RTGcore_AA] (site GCGCGACCTAA) (LTG core: CT, RTG core: AA)” the “recombinant barcode read abundance (log10)” value was 0.0792.
In the case of “GCGCGACTCTGGGTTCTAACCTGTTGCTTAG [GCGCGACCTAA_LTGcore_TC_RTGcore_CT] (site GCGCGACCTAA) (LTG core: TC, RTG core: CT)”, the “recombinant barcode read abundance (log10)” value is reported as 0.
In the case of “GCGCGACTGTGGGTTCTAACCTGTTGCTTCA [GCGCGACCTAA_LTGcore_TG_RTGcore_TG] (site GCGCGACCTAA) (LTG core: TG, RTG core: TG)”, the “recombinant barcode read abundance (log10)” value is reported as 0.0758.
With “GCGCGACTTTGGGTTCTAACCTGTTGCTTAG [GCGCGACCTAA_LTGcore_TT_RTGcore_CT] (site GCGCGACCTAA) (LTG core: TT, RTG core: CT)” the “recombinant barcode read abundance (log10)” value was 0.109.
For “GCGGGACATTGGGTTCTAACCTGTTGCCTAG [GCGGGACCTAG_LTGcore_AT_RTGcore_CT] (site GCGGGACCTAG) (LTG core: AT, RTG core: CT)”, the “recombinant barcode read abundance (log10)” value was 0.17.
In the case of “GCGGGACCATGGGTTCTAACCTGTTGCCTTG [GCGGGACCTAG_LTGcore_CA_RTGcore_CA] (site GCGGGACCTAG) (LTG core: CA, RTG core: CA)”, the “recombinant barcode read abundance (log10)” value is reported as 0.182.
With “GCGGGACCCTGGGTTCTAACCTGTTGCCTAG [GCGGGACCTAG_LTGcore_CC_RTGcore_CT] (site GCGGGACCTAG) (LTG core: CC, RTG core: CT)” the “recombinant barcode read abundance (log10)” value was 1.21.
With “GCGGGACCGTGGGTTCTAACCTGTTGCCTAG [GCGGGACCTAG_LTGcore_CG_RTGcore_CT] (site GCGGGACCTAG) (LTG core: CG, RTG core: CT)” the “recombinant barcode read abundance (log10)” value was 0.76.
With “GCGGGACCTTGGGTTCTAACCTGTTGCCTGC [GCGGGACCTAG_LTGcore_CT_RTGcore_GC] (site GCGGGACCTAG) (LTG core: CT, RTG core: GC)” the “recombinant barcode read abundance (log10)” value was 1.08.
In the case of “GCGGGACCTTGGGTTCTAACCTGTTGCCTTA [GCGGGACCTAG_LTGcore_CT_RTGcore_TA] (site GCGGGACCTAG) (LTG core: CT, RTG core: TA)”, the “recombinant barcode read abundance (log10)” value is reported as 1.18.
For “GCGGGACCTTGGGTTCTAACCTGTTGCCTTC [GCGGGACCTAG_LTGcore_CT_RTGcore_GA] (site GCGGGACCTAG) (LTG core: CT, RTG core: GA)”, the “recombinant barcode read abundance (log10)” value was 1.19.
For “GCGGGACGTTGGGTTCTAACCTGTTGCCTAC [GCGGGACCTAG_LTGcore_GT_RTGcore_GT] (site GCGGGACCTAG) (LTG core: GT, RTG core: GT)”, the “recombinant barcode read abundance (log10)” value was 0.163.
For “GCGGGACTTTGGGTTCTAACCTGTTGCCTAG [GCGGGACCTAG_LTGcore_TT_RTGcore_CT] (site GCGGGACCTAG) (LTG core: TT, RTG core: CT)”, the “recombinant barcode read abundance (log10)” value was 0.13.
For “GGACACCATTGGGTTCTAACCTGTTGCCTAG [GGACACCCTAG_LTGcore_AT_RTGcore_CT] (site GGACACCCTAG) (LTG core: AT, RTG core: CT)”, the “recombinant barcode read abundance (log10)” value was 0.15.
For “GGACACCATTGGGTTCTAACCTGTTGCCTAT [GGACACCCTAG_LTGcore_AT_RTGcore_AT] (site GGACACCCTAG) (LTG core: AT, RTG core: AT)”, the “recombinant barcode read abundance (log10)” value was 0.145.
For “GGACACCCTTGGGTTCTAACCTGTTGCCTAA [GGACACCCTAG_LTGcore_CT_RTGcore_TT] (site GGACACCCTAG) (LTG core: CT, RTG core: TT)”, the “recombinant barcode read abundance (log10)” value was 1.19.
For “GGACACCCTTGGGTTCTAACCTGTTGCCTCC [GGACACCCTAG_LTGcore_CT_RTGcore_GG] (site GGACACCCTAG) (LTG core: CT, RTG core: GG)”, the “recombinant barcode read abundance (log10)” value was 0.904.
With “GGACACCCTTGGGTTCTAACCTGTTGCCTCT [GGACACCCTAG_LTGcore_CT_RTGcore_AG] (site GGACACCCTAG) (LTG core: CT, RTG core: AG)” the “recombinant barcode read abundance (log10)” value was 0.545.
For “GGACACCCTTGGGTTCTAACCTGTTGCCTGG [GGACACCCTAG_LTGcore_CT_RTGcore_CC] (site GGACACCCTAG) (LTG core: CT, RTG core: CC)”, the “recombinant barcode read abundance (log10)” value was 0.503.
With “GGACACCCTTGGGTTCTAACCTGTTGCCTTA [GGACACCCTAG_LTGcore_CT_RTGcore_TA] (site GGACACCCTAG) (LTG core: CT, RTG core: TA)” the “recombinant barcode read abundance (log10)” value was 1.36.
In the case of “GGACACCCTTGGGTTCTAACCTGTTGCCTTT [GGACACCCTAG_LTGcore_CT_RTGcore_AA] (site GGACACCCTAG) (LTG core: CT, RTG core: AA)”, the “recombinant barcode read abundance (log10)” value is reported as 1.04.
With “GGACACCGCTGGGTTCTAACCTGTTGCCTGC [GGACACCCTAG_LTGcore_GC_RTGcore_GC] (site GGACACCCTAG) (LTG core: GC, RTG core: GC)” the “recombinant barcode read abundance (log10)” value was 0.0534.
In the case of “GGACACCGGTGGGTTCTAACCTGTTGCCTCC [GGACACCCTAG_LTGcore_GG_RTGcore_GG] (site GGACACCCTAG) (LTG core: GG, RTG core: GG)”, the “recombinant barcode read abundance (log10)” value is reported as 0.0801.
With “GGACACCGTTGGGTTCTAACCTGTTGCCTAC [GGACACCCTAG_LTGcore_GT_RTGcore_GT] (site GGACACCCTAG) (LTG core: GT, RTG core: GT)” the “recombinant barcode read abundance (log10)” value was 0.944.
In the case of “GGACACCTATGGGTTCTAACCTGTTGCCTAG [GGACACCCTAG_LTGcore_TA_RTGcore_CT] (site GGACACCCTAG) (LTG core: TA, RTG core: CT)”, the “recombinant barcode read abundance (log10)” value is reported as 0.094.
